Earlier results as cited in patent US20230338402A1, “TREATMENT REGIMEN FOR CANCER USING IMMUNOMODULATION” (BioXcel Therapeutics, Inc., priority 2020, published 2023).
Where a name gives a salt, the structure may show the parent alone.

Legend:
CYP2C8 = target: T1, CYP2C8 (Homo sapiens, UniProt P10632)
T1 sequence (P10632 1-490): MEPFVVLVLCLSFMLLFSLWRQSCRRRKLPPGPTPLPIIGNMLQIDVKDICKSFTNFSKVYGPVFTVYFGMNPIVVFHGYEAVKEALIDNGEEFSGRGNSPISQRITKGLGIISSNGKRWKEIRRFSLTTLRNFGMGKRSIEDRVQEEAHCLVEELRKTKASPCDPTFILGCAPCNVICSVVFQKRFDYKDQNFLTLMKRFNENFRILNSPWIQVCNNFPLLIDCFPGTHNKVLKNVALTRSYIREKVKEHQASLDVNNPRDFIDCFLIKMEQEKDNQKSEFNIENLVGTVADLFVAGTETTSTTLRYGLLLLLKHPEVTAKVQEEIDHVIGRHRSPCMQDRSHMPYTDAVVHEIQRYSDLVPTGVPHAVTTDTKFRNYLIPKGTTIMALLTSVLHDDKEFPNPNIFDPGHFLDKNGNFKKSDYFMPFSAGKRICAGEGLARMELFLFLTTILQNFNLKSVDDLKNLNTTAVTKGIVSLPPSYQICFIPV

CYP1A2 [1] = target: T2, CYP1A2 (Homo sapiens, UniProt P05177); conditions: human liver CYP isoenzymes, preclinical studies
T2 sequence (P05177 1-516): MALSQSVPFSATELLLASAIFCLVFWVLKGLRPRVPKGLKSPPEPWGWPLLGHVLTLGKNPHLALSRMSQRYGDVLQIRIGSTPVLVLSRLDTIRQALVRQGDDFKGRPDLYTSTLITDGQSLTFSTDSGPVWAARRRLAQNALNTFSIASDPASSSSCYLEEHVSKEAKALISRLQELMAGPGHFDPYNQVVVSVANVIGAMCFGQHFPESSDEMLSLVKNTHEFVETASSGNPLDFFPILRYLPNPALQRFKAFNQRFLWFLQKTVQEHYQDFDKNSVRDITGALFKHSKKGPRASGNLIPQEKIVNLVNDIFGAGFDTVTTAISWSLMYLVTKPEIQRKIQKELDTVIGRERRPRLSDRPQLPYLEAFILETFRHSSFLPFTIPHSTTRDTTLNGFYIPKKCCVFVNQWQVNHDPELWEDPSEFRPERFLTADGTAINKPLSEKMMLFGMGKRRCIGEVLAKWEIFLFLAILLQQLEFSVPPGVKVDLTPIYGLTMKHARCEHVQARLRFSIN

CYP3A4 [2] = tested on: CYP3A4
CYP1A2 [3] = tested on: CYP1A2
CYP2D6 = CYP2D6 (Homo sapiens, UniProt P10635)
CYP2C19 = CYP2C19 (Homo sapiens, UniProt P33261)
CYP2C9 = CYP2C9 (Homo sapiens, UniProt P11712)
CYP3A4 [4] = target: CYP3A4 (Homo sapiens, UniProt P08684)
melanoma = melanoma patients

Sequence of CYP2C9 (P11712 whole entry): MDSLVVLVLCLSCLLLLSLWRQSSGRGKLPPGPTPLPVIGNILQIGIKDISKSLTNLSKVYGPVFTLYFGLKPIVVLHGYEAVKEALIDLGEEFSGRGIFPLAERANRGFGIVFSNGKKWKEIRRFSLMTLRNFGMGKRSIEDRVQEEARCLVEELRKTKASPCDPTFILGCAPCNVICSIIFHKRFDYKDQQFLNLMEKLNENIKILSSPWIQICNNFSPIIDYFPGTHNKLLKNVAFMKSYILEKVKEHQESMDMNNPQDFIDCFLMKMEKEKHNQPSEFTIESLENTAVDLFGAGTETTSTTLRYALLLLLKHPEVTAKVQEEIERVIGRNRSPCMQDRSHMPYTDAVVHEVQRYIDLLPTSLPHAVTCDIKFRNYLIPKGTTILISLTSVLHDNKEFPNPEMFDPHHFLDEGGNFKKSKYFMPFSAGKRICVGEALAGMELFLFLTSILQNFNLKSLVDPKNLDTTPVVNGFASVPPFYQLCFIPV
Sequence of CYP3A4 (Homo sapiens, UniProt P08684) (P08684 whole entry): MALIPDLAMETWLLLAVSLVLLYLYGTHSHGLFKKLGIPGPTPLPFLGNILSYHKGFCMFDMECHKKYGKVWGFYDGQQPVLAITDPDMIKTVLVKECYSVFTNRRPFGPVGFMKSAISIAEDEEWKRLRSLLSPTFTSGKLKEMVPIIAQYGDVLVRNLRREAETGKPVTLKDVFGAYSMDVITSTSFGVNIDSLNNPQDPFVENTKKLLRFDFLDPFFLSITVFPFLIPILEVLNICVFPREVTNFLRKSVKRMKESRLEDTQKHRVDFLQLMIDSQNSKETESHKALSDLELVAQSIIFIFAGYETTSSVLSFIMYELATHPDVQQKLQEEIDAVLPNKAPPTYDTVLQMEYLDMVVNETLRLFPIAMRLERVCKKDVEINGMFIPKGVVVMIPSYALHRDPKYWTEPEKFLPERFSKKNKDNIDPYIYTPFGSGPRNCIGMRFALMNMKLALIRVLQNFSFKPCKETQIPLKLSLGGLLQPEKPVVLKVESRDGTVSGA
Sequence of CYP2D6 (P10635 whole entry): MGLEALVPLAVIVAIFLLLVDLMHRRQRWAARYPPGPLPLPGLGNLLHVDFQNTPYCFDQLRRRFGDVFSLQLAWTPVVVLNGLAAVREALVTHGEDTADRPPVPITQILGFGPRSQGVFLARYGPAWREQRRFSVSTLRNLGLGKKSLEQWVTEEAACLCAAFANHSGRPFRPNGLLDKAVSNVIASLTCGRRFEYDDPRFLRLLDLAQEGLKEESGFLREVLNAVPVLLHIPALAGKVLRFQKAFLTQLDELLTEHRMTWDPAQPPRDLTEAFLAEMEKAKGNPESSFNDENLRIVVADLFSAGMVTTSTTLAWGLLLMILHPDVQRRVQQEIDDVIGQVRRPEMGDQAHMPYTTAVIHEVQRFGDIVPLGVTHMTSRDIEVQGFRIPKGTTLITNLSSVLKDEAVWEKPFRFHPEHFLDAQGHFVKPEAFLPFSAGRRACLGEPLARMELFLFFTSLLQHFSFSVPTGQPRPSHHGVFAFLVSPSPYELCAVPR
Sequence of CYP2C19 (P33261 whole entry): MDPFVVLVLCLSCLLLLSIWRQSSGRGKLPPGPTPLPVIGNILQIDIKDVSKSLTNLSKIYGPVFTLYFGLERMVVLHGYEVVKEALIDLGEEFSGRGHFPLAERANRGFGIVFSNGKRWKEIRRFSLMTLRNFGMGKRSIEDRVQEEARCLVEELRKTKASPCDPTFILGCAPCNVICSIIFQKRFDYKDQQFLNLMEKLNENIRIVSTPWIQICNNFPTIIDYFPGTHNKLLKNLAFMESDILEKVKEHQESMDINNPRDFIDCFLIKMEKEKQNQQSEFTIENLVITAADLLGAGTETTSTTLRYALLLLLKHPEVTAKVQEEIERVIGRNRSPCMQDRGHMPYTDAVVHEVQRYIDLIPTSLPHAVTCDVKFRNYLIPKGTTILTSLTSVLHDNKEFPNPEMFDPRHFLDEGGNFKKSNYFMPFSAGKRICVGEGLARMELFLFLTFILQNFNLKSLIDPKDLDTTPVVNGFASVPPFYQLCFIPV

Compound | Potential to inhibit CYP2C8 (CYP2C8) | Potential to inhibit CYP1A2 (CYP1A2 [1]) | Induction of CYP3A4 (CYP3A4 [2]) | Induction of CYP1A2 (CYP1A2 [3]) | Potential to inhibit CYP2D6 (CYP2D6) | Potential to inhibit CYP2C19 (CYP2C19) | Potential to inhibit CYP2C9 (CYP2C9) | Potential to inhibit CYP3A4 (CYP3A4 [4]) | Response rate (melanoma) [%]
CC(C)[C@H](N)C(=O)N1CCC[C@H]1B(O)O [Talabostat mesylate, [(2R)-1-[(2S)-2-amino-3-methylbutanoyl]pyrrolidin-2-yl]boronic acid] | low potential | low potential | did not induce | did not induce | low potential | low potential | low potential | low potential | –
Ipilimumab: CTLA-4 antagonist, immune checkpoint inhibitor antibody | – | – | – | – | – | – | – | – | 11
Nivolumab: PD-1 antagonist, immune checkpoint inhibitor antibody | – | – | – | – | – | – | – | – | 32
